Test results from paper PMC4612330 (Cancer Chemotherapy and Pharmacology, 2015).
“And” between values parts separate entries of the source, which are not always exact repeats. Identical values can stand only once. Like-named read-outs stand apart in the source and are kept apart here.

Experiments:
[1] = phase 1 plasma pharmacokinetics, noncompartmental; conditions: for AUCt: carboplatin AUC 6 mg/mL min IV day 3, last sampling 21 h
Description: Six cycles of therapy were planned.
Plasma samples were stored at −20 °C until shipment to AbbVie. […] Plasma concentrations of carboplatin were determined using an inductively coupled plasma mass spectrometry. Standard pharmacokinetic parameters were determined using non-compartmental methods.

[2] = system: Japanese patients with NSCLC; assay: phase 1 anti-tumor response (RECIST version 1.1) of veliparib plus carboplatin and paclitaxel; assay type: in vivo, human
Description: A CT scan of the full chest and abdomen with images of the liver and adrenal glands was performed for all tumor assessments at screening (within 3 weeks prior to registration) and at the end of every 2 cycles (6 weeks). Tumor assessments were performed within 7 days of the scheduled date.

lung cancer tumor models = conditions: preclinical lung cancer tumor models; cited from earlier work
[3] = system: patients with advanced or metastatic solid tumors; conditions: cited from earlier work
[4] = system: patients with triple-negative breast cancer; conditions: with carboplatin and paclitaxel; cited from earlier work
[5] = system: patients with newly diagnosed ovarian cancer; set-up: method as in GOG 9923; conditions: with carboplatin, paclitaxel, and bevacizumab; study ongoing; ref GOG 9923; cited from earlier work
[6] = system: patients with advanced or metastatic NSCLC; conditions: cited from earlier work
[7] = system: patients with triple-negative breast cancer; conditions: veliparib and carboplatin plus standard neoadjuvant therapy; cited from earlier work
[8] = set-up: method as in printed; conditions: ref not given; cited from earlier work
[9] = set-up: method as in printed; conditions: ref not given; cited from earlier work; remark: listed apart in the source
[10] = in humans; cited from earlier work
[11] = system: major cytochrome P450 enzymes; conditions: at therapeutic doses; cited from earlier work
major drug transporters = conditions: at therapeutic doses; cited from earlier work
[12] = system: PARP activity in tumor biopsies; conditions: cited from earlier work; for PARP inhibition in tumor biopsies, average: 50 mg
PARP activity in PBMCs = conditions: 50 mg, maintained for 24 h in 3 subjects; cited from earlier work
[13] = plus carboplatin and paclitaxel
[14] = carboplatin AUC 6 mg/mL min IV day 3, all patients N = 12, mean ± SD
[15] = carboplatin AUC 6 mg/mL min IV day 3, with veliparib 40 mg BID n = 3, mean ± SD
[16] = carboplatin AUC 6 mg/mL min IV day 3, with veliparib 80 mg BID n = 3, mean ± SD
[17] = carboplatin AUC 6 mg/mL min IV day 3, with veliparib 120 mg (BID) n = 6, mean ± SD

CC(=O)O[C@H]1C(=O)[C@@]2(C)[C@H]([C@H](OC(=O)c3ccccc3)[C@]3(O)C[C@H](OC(=O)[C@H](O)[C@@H](NC(=O)c4ccccc4)c4ccccc4)C(C)=C1C3(C)C)[C@]1(OC(C)=O)CO[C@@H]1C[C@@H]2O [Paclitaxel, reference compound]
T max ([1]; human, in vivo, iv): 3.0 ± 0.0 h
AUC(0-t) ([1]; human, in vivo, iv, 200 mg/m2, AUCt): 24800 ± 2860 ng·h/mL
AUC(0-inf) ([1]; human, in vivo, iv, 200 mg/m2, AUC∞): 25500 ± 2890 ng·h/mL
Cmax ([1]; human, in vivo, iv, 200 mg/m2, C max): 6840 ± 1200 ng/mL
Tmax ([1]; human, in vivo, iv, 200 mg/m2, T max): 2.9 ± 0.3 h
Tmax ([1]; human, in vivo, iv, T max): 3.1 ± 0.2 h

C[C@]1(c2nc3c(C(N)=O)cccc3[nH]2)CCCN1 [Veliparib, 2-[(R)-2-methylpyrrolidin-2-yl]-1H-benzimidazole-4-carboxamide]
AUC0–8/dose ([1]; human, in vivo): 31.4 ± 6.69 (ng h/mL)/mg
AUC∞/dose ([1]; human, in vivo): 44.2 ± 11.3 (ng h/mL)/mg
C max/dose ([1]; human, in vivo): 7.06 ± 1.29 (ng/mL)/mg
AUC0–8/dose ([1]; human, in vivo, 40 mg): 32.2 ± 9.24 (ng h/mL)/mg
AUC∞/dose ([1]; human, in vivo, 40 mg): 46.0 ± 16.8 (ng h/mL)/mg
C max/dose ([1]; human, in vivo, 40 mg): 8.18 ± 1.19 (ng/mL)/mg
AUC(0-t) ([1]; human, in vivo, 40 mg, AUC0–8): 1290 ± 370 ng·h/mL
AUC(0-inf) ([1]; human, in vivo, 40 mg, AUC∞): 1840 ± 671 ng·h/mL
Cmax ([1]; human, in vivo, 40 mg, C max): 327 ± 47.7 ng/mL
Tmax ([1]; human, in vivo, 40 mg, T max): 2.5 ± 1.3 h
AUC0–8/dose ([1]; human, in vivo, 80 mg): 26.7 ± 2.46 (ng h/mL)/mg
AUC∞/dose ([1]; human, in vivo, 80 mg): 35.0 ± 3.33 (ng h/mL)/mg
C max/dose ([1]; human, in vivo, 80 mg): 6.01 ± 0.35 (ng/mL)/mg
AUC(0-t) ([1]; human, in vivo, 80 mg, AUC0–8): 2140 ± 197 ng·h/mL
AUC(0-inf) ([1]; human, in vivo, 80 mg, AUC∞): 2800 ± 266 ng·h/mL
Cmax ([1]; human, in vivo, 80 mg, C max): 481 ± 27.8 ng/mL
Tmax ([1]; human, in vivo, 80 mg, T max): 3.3 ± 1.2 h
AUC0–8/dose ([1]; human, in vivo, 120 mg): 33.3 ± 6.34 (ng h/mL)/mg
AUC∞/dose ([1]; human, in vivo, 120 mg): 48.0 ± 9.72 (ng h/mL)/mg
C max/dose ([1]; human, in vivo, 120 mg): 7.03 ± 1.27 (ng/mL)/mg
dose proportionality of Cmax and AUC ([1]; human, in vivo, 120 mg): approximately dose proportional
AUC(0-t) ([1]; human, in vivo, 120 mg, AUC0–8): 3990 ± 796 ng·h/mL
AUC(0-inf) ([1]; human, in vivo, 120 mg, AUC∞): 5760 ± 1170 ng·h/mL
Cmax ([1]; human, in vivo, 120 mg, C max): 844 ± 152 ng/mL
Tmax ([1]; human, in vivo, 120 mg, T max): 3 ± 1.1 h
pharmacokinetic profile, Japanese versus Western populations ([1]; in vivo): generally comparable
patients who developed progressive disease (PD) ([2]; 80 mg BID): One
median PFS ([2]; all dose levels): 92 days
patients who achieved PR at the first CT scan ([2]; all dose levels): 3
patients who achieved a PR ([2]; all dose levels, 11 patients): Six
overall response rate ([2]; efficacy population, 11 patients): 55%
effect on platinum-based chemotherapy (lung cancer tumor models): potentiates the effect of platinum-based chemotherapy
maximum dose of veliparib ([3]; for 7 days in addition to standard doses of carboplatin and paclitaxel): 120 mg BID
complete response (CR) ([3]; phase 1 dose-escalation study): 3%
complete response (CR), patients ([3]; phase 1 dose-escalation study): 2/68
partial response (PR) ([3]; phase 1 dose-escalation study): 16%
partial response (PR), patients ([3]; phase 1 dose-escalation study): 11/68
stable disease ([3]; phase 1 dose-escalation study): 51%
stable disease, patients ([3]; phase 1 dose-escalation study): 35/68
RPTD ([3]; with standard doses of carboplatin and paclitaxel): 100 mg BID
dose cleared [4]: up to 200 mg BID
dose cleared [5]: ≥ 150 mg BID
Overall survival (OS) [6, 13]: 11.1 months
median progression-free survival (PFS) [6, 13]: 5.8 months
HR (PFS) ([6]; veliparib versus placebo, each plus carboplatin and paclitaxel): 0.71
estimated pathologic complete response rate [7]: 52%
solubility [8]: highly soluble
permeability [9]: permeable
elimination [10]: primarily eliminated by renal excretion
inhibition of major cytochrome P450 enzymes [11]: not an inhibitor
inhibition of major drug transporters (major drug transporters): not an inhibitor
PARP inhibition in tumor biopsies, average ([12]; 3–6 h after dosing (N = 3)): 75%
PARP inhibition in tumor biopsies, average ([12]; 24 h after dosing (N = 3)): 74%
inhibition of PARP activity in tumor biopsies ([12]; single dose of 25 mg, 3–6 h after dosing, 3 subjects (one value each)): 92% and 95% and 100%
inhibition of PARP activity in PBMCs (PARP activity in PBMCs): Complete inhibition

N.N.O=C([O-])C1(C(=O)[O-])CCC1.[Pt+2] [Carboplatin, reference compound]
AUCt ([1]; all patients N = 12, mean ± SD): 92500 ± 6540 ng·h/mL
AUCt ([1]; with veliparib 40 mg BID n = 3, mean ± SD): 94100 ± 9910 ng·h/mL
AUCt ([1]; with veliparib 80 mg BID n = 3, mean ± SD): 95100 ± 5830 ng·h/mL
AUCt ([1]; with veliparib 120 mg (BID) n = 6, mean ± SD): 90300 ± 5450 ng·h/mL
AUC∞ [1, 14]: 103000 ± 7670 ng·h/mL
C max [1, 14]: 22600 ± 2250 ng/mL
T max [1, 14]: 1.0 ± 0.0 h
AUC∞ [1, 15]: 105000 ± 12300 ng·h/mL
C max [1, 15]: 22300 ± 2370 ng/mL
T max [1, 15]: 1.0 ± 0.0 h
AUC∞ [1, 16]: 105000 ± 7140 ng·h/mL
C max [1, 16]: 24300 ± 1160 ng/mL
T max [1, 16]: 1.0 ± 0.0 h
AUC∞ [1, 17]: 100000 ± 5730 ng·h/mL
C max [1, 17]: 22000 ± 2450 ng/mL
T max [1, 17]: 1.0 ± 0.0 h
pharmacokinetics when co-administered with 40, 80, or 120 mg veliparib BID ([1]; day 3 of cycle 1): comparable
